Test results as given in patent US20100279937A1, “Method of Inhibiting Angiogenesis, Tumorigenesis and Cathepsin Activity” (priority 2006, published 2010).

How the values were obtained:
[1] = target: T1, cathepsin B (Homo sapiens, UniProt P07858); assay: Secreted cathepsin B activity in U87MG conditioned media; format: biochemical; details: 10 μM CA074-ME; overnight incubation
T1 construct: Levels of cathepsin B activity were also measured in U87MG CM alone or pre-incubated; endogenous in cells; host or cells: U87MG (ATCC), 3-day serum-free conditioned medium
Experimental: The human glioma cell line U87MG was established from surgically removed type III glioma/glioblastoma and obtained from ATCC. Cells (5×10^4 cells/ml) were plated in poly-L-lysine pre-coated dishes and grown at 37° C. in D-MEM (DME) supplemented with 100 U/ml penicillin, 100 μg/ml streptomycin and 10% heat-inactivated fetal bovine serum (FBS) (HyClone, Logan, Utah) in humidified atmosphere of 5% CO2/95% air until reached 80% confluence. Then, media were removed and the cells incubated for 3 days in serum-free DME to obtain conditioned media (CM). Conditioned media were collected and filtered (Millex-GV sterilizing filter membrane, 0.22 μm). Cells were then harvested for molecular and biochemical assays. […]

[2] = test system: U87MG cells; assay: U87MG growth in semi-solid (soft) agar; format: cell-based, human; details: 10 μM CA074-ME; Alamar Blue
Experimental: […] Approximately 15,000 cells±treatment were resuspended in 150 μl medium containing 0.3% agar, and seeded onto a well of a 24-well plate previously layered with 250 μl 0.6% agar. The solidified cell layer was covered with 50 μl DME±treatment which was replaced every three days over a 21 day period. Phase contrast images (6 fields/well) were captured using a digital video camera (Olympus U-CMT) and analyzed with Northern Eclipse v.5.0 software. Color images were transformed to grey scale, thresholded, and then converted to binary images. Number and area of colonies per field were calculated. In order to measure cell viability, at the end of the experiment, 40 μl alamar blue was added to each well and fluorescence readings were performed every 10 min for a period of 180 min. Experiments were repeated 2-3 times in triplicates.

CCCNC(=O)[C@H]1O[C@@H]1C(=O)N[C@H](C(=O)N1CCC[C@H]1C(=O)OC)[C@@H](C)CC [CA074-ME, reference compound]
inhibition of secreted cathepsin B activity in U87MG CM [1]: ~40% | inhibition of U87MG colony formation in soft agar (efficacy) [2]: ~70%
